Experimental data published in patent US8431593B2, “Heteroaryl amide derivatives” (H. Lundbeck A/S, priority 2006, dated 2013).

target: T1, P2X7 receptor (Homo sapiens, UniProt Q99572); test: P2X7 calcium mobilization assay, high throughput, antagonist activity (Example 4A); type: cell-based; conditions: not given
T1 construct: host or cells: SH-SY5Y
T1 sequence (Q99572 1-595): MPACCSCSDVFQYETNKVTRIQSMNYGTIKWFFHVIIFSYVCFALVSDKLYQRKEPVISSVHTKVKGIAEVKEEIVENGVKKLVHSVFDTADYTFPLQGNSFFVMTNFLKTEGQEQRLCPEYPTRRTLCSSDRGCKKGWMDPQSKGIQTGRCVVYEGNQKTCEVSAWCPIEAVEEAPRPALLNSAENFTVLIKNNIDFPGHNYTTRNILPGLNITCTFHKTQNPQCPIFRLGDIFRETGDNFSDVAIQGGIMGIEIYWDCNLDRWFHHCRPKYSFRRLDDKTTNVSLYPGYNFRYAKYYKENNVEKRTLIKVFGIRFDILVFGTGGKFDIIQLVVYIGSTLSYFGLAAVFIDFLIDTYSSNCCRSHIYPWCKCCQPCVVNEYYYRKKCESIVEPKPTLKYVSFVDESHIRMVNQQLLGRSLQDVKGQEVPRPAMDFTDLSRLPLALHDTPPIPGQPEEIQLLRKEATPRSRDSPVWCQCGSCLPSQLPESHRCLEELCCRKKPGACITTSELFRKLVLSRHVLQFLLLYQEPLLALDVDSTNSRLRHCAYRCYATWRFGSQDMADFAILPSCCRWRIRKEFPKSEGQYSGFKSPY
Method: One day prior to the experiment, cells are plated at a density of 100,000 cells/well in a 96 well black/clear TC plate (Corning® Costar®, Sigma-Aldrich Co., St. Louis, Mo.). […] After one hour dye incubation, wells are rinsed once with 50 μL assay solution, and are then incubated for an hour at room temperature with 100 μL assay solution containing the test compound. […] After the one hour incubation, plates are transferred to a FLIPR^TETRA instrument (Molecular Devices, Sunnyvale, Calif.) for calcium mobilization analysis.
First, the average maximum relative fluorescent unit (RFU) response from the negative control wells (no agonist) is subtracted from the maximum response detected for each of the other experimental wells. Second, average maximum RFU response is calculated for the positive control wells (agonist wells).

Row | SMILES | IC50
1 | CCOC(=O)c1cn2c(C(=O)NCC(CC(C)C)c3ccccc3)cccc2n1 (stereo not drawn) [Compound 128, ethyl 5-[(4-methyl-2-phenyl-pentyl)carbamoyl]imi-dazo[1,2-a]pyridine-2-carboxylate] | < 2000 nM
2 | COCC1CCN(C(=O)c2cn3c(C(=O)NCC45CC6CC(CC(C6)C4)C5)cccc3n2)CC1 [Compound 87, N-(adamantan-1-ylmethyl)-2-{[4-(methoxy-methyl)piperidin-1-yl]carbonyl}imi-dazo[1,2-a]pyridine-5-carboxamide] | < 2000 nM

same assay, conditions: 50% decrease in the fluorescence response of cells exposed to 80 μM 2′(3′)-O-(4-benzoyl-benzoyl)adenosine 5′-triphosphate; Example 4A; read-out: IC50

Row | IC50 | SMILES
3 | < 2000 nM | CC1(C)[C@@H]2CC[C@@H](CNC(=O)c3cccc4nc(CC(=O)N5CCCNCC5)cn34)[C@H]1C2 [Compound 560, 2-[2-(1,4-diazepan-1-yl)-2-oxoethyl]-N-{[(1R,2R,5R)-6,6-dimethylbicyclo[3.1.1]hept-2-yl]methyl}imidazo[1,2-a]pyridine-5-carboxamide]
4 | < 2000 nM | CO[C@H]1CCN(C(=O)c2cn3c(C(=O)NC[C@@H]4CC[C@H]5C[C@@H]4C5(C)C)cccc3n2)C1 [Compound 492, N-{[(1S,2R,5S)-6,6-dimethylbicyclo[3.1.1]hept-2-yl]methyl}-2-{[(3S)-3-methoxypyrrolidin-1-yl]carbonyl}imidazo [1,2-a]pyridine-5-carboxamide]
5 | < 2000 nM | CC1(C)[C@@H]2CC[C@@H](CNC(=O)c3cccc4nc(CC(=O)NC5CCNC5)cn34)[C@H]1C2 (stereo partly drawn) [Compound 591, N-{[(1R,2R,5R)-6,6-dimethylbicyclo[3.1.1]hept-2-yl]methyl}-2-[2-oxo-2-(pyrrolidin-3-ylamino)ethyl]imidazo [1,2-a]pyridine-5-carboxamide]
6 | < 2000 nM | CC1(C)[C@H]2CC[C@@H](CNC(=O)c3cccc4nc(C(=O)NC5CCC5)cn34)[C@@H]1C2 [Compound 495, 2-N-cyclobutyl-5-N-{[(1S,2R,5S)-6.6-dimethylbicyclo[3.1.1]hept-2-yl]methyl} imidazo[1,2-a]pyridine-2,5-dicarboxamide]

same assay, conditions: 50% decrease in the fluorescence response of cells exposed to 80 μM of 2′(3′)-O-(4-benzoyl-benzoyl)adenosine 5′-triphosphate; Example 4A; read-out: IC50

Row | IC50 | SMILES
7 | < 2000 nM | O=C(NCCc1ccncc1)c1cn2c(C(=O)NCC34CC5CC(CC(C5)C3)C4)cccc2n1 [Compound 660, 5-N-(adamantan-1-ylmethyl)-2-N-(2-pyridin-4-ylethyl)imidazo[1,2-a]pyridine-2,5-dicarboxamide]
8 | < 2000 nM | CC(C)N[C@@H]1CCCN(C(=O)c2cn3c(C(=O)NCC45CC6CC(CC(C6)C4)C5)cccc3n2)C1 [Compound 745, N-(adamantan-1-ylmethyl)-2-{[(3R)-3-(isopropylamino)piperidin-1-yl]carbonyl}imidazo[1,2-a]pyridine-5-carboxamide]
9 | < 2000 nM | CC(C(=O)N1CC[C@@H](NC(=O)OC(C)(C)C)C1)c1cn2c(C(=O)NCC34CC5CC(CC(C5)C3)C4)cccc2n1 (stereo in doubt) [Compound 749, tert-butyl [1-(2-{5-[(adamantan-1-ylmethyl)carbamoyl]imidazo[1,2-a]pyridin-2-yl}propanoyl)pyrrolidin-3-yl]carbamate]
10 | < 2000 nM | O=C(NCC12CC3CC(CC(C3)C1)C2)c1cccc2nc(C(Cc3ccncc3)C(=O)O)cn12 (stereo not drawn) [Compound 734, 2-{5-[(adamantan-1-ylmethyl)carbamoyl]imidazo[1,2-a]pyridin-2-yl}-3-pyridia-4-ylpropanoic acid]
11 | < 2000 nM | CC(Cc1nnn[nH]1)c1cn2c(C(=O)NCC34CC5CC(CC(C5)C3)C4)cccc2n1 (stereo not drawn) [Compound 781, N-(adamantan-1-ylmethyl)-2-[1-methyl-2-(1H-tetrazol-5-yl)ethyl] imidazo[1,2-a] pyridine-5-carboxamide]

same assay, conditions: 50% decrease in the fluorescence response of cells exposed to 80 μM of 2′(3′)-O-(4-benzoyl-benzoyl)adenosine 5′-triphosphate; determined as in Example 4A; read-out: IC50

Row | IC50 | SMILES
12 | < 2000 nM | O=C(Cc1cn2c(C(=O)NCC3(c4ccc(C(F)(F)F)cc4)CCCCC3)cccc2n1)NCC(F)(F)F [Compound 873, 2-{2-oxo-2-[(2,2,2-trifluoroethyl)amino]ethyl}-N-({1-[4-(trifluoromethyl)phenyl]cyclohexyl}methyl) imidazo[1,2-a] pyridine-5-carboxamide]
13 | < 2000 nM | O=C(NCC12CC3CC(CC(C3)C1)C2)c1cccc2nc(Cn3nnnc3-c3ccncc3)cn12 [Compound 818, N-(adamantan-1-ylmethyl)-2-[(5-pyridin-4-yl-1H-tetrazol-1-yl)methyl]imidazo [1,2-a]pyridine-5-carboxamide]
14 | < 2000 nM | COC1CCN(C(=O)Cc2cn3c(C(=O)NCC4(c5ccc(Cl)cc5)CCCCC4)cccc3n2)CC1 [Compound 898, N-{[1-(4-chlorophenyl)cyclohexyl]methyl}-2-[2-(4-methoxypiperidin-1-yl)-2-oxoethyl] imidazo[1,2-a] pyridine-5-carboxamide]
15 | < 2000 nM | O=C(Cc1cn2c(C(=O)NCC3(N4CCOCC4)CCCCC3)cccc2n1)NC1(CO)CCCC1 [Compound 988, 2-(2-{[1-(hydroxymethyl)cyclopentyl]amino}-2-oxoethyl)-N-[(1-morpholin-4-ylcyclohexyl)methyl] imidazo[1,2-a] pyridine-5-carboxamide]

same assay, conditions: P2X7 calcium mobilization, Example 4A; 50% decrease in the fluorescence response of cells exposed to 80 μM of (2′(3′)-O-(4-benzoyl-benzoyl)adenosine 5′-triphosephate); read-out: IC50

Row | IC50 | SMILES
16 | < 2000 nM | CC(C)CC(CNC(=O)c1cccc2nc(C(C)N3CCCC3)cn12)c1ccc(Cl)cc1 (stereo not drawn) [Compound 1035, N-[2-(4-chlorophenyl)-4-methylpentyl]-2-(1-pyrrolidin-1-ylethyl) imidazo[1,2-a]pyridine-5-carboxamide]

same assay, conditions: SH-SY5Y cells; 50% decrease in fluorescence response to 80 μM BzATP; read-out: IC50

Row | IC50 | SMILES
17 | < 2000 nM | NC1CN(Cc2cn3c(C(=O)NCC45CC6CC(CC(C6)C4)C5)cccc3n2)C1 [Compound 130, N-(adamantan-1-ylmethyl)-2-[(3-aminoazetidin-1-yl)methyl]imidazo[1,2-a]pyridine-5-carboxamide]
18 | < 2000 nM | O=C(NCC12CC3CC(CC(C3)C1)C2)c1cccc2nc(Cn3ccccc3=O)cn12 [Compound 211, N-(adamantan-1-ylmethyl)-2-[(2-oxopyridin-1(2H)-yl)methyl]imidazo[1,2-a]pyridine-5-carboxamide]
19 | < 2000 nM | CC(C)C(=O)N[C@@H]1CCN(Cc2cn3c(C(=O)NCC45CC6CC(CC(C6)C4)C5)cccc3n2)C1 (stereo in doubt) [Compound 71, N-(adamantan-1-ylmethyl)-2-{[3-(isobutyryl-amino)pyrrolidin-1-yl]methyl}imidazo[1,2-a]pyridine-5-carboxamide]

same assay, conditions: fluorescence response of cells exposed to 80 μM 2′(3′)-O-(4-benzoyl-benzoyl)adenosine 5′-triphosphate; Example 4A; read-out: IC50

Row | IC50 | SMILES
20 | < 2000 nM | C[C@H](N)C(=O)N[C@@H]1CCN(Cc2cn3c(C(=O)NCC45CC6CC(CC(C6)C4)C5)cccc3n2)C1 [Compound 277, N-(adamantan-1-ylmethyl)-2-{[(3R)-3-(L-alanylamino)pyrrolidin-1-yl]methyl}imidazo[1,2-a]pyridine-5-carboxamide]
21 | < 2000 nM | CN(CCO)C(=O)c1cn2c(NC(=O)CC34CC5CC(CC(C5)C3)C4)cccc2n1 [Compound 405, 5-[(adamantan-1-ylacetyl)amino]-N-(2-hydroxyethyl)-N-methylimidazo[1,2-a]pyridine-2-carboxamide]
22 | < 2000 nM | COCC1CCN(C(=O)c2cn3c(NC(=O)CC45CC6CC(CC(C6)C4)C5)cccc3n2)CC1 [Compound 396, 2-adamantan-1-yl-N-(2-{[4-(methoxymethyl)piperidin-1-yl]carbonyl}imidazo[1,2-a]pyridin-5-yl)acetamide]
23 | < 2000 nM | CNCC(=O)NCCc1cn2c(C(=O)NCC34CC5CC(CC(C5)C3)C4)cccc2n1 [Compound 270, N-(adamantan-1-ylmethyl)-2-{2-[(N-methylglycyl)amino]ethyl}imidazo[1,2-a] pyridine-5-carboxamide]
24 | < 2000 nM | C/C(CCc1cn2c(C(=O)NCC34CC5CC(CC(C5)C3)C4)cccc2n1)=N\O [Compound 354, N-(adamantan-1-ylmethyl)-2-[(3E)-3-(hydroxyimino)butyl] imidazo[1,2-a]pyridine-5-carboxamide]
25 | < 2000 nM | COC(=O)CN(C)C(=O)c1cn2c(NC(=O)CC34CC5CC(CC(C5)C3)C4)cccc2n1 [Compound 377, methyl N-({5-[(adamantan-1-ylacetyl)amino]imidazo[1,2-a]pyridin-2-yl}carbonyl)-N-methylglycinate]
26 | < 2000 nM | CCCN(CCC)C(=O)c1cn2c(NC(=O)CC34CC5CC(CC(C5)C3)C4)cccc2n1 [Compound 374, 5-[(adamantan-1-ylacetyl)amino]-N,N-dipropylimidazo[1,2-a]pyridine-2-carboxamide]
27 | < 2000 nM | Cc1cc(C(=O)O)nn1Cc1cn2c(C(=O)NCC34CC5CC(CC(C5)C3)C4)cccc2n1 [Compound 276, 1-({5-[(adamantan-1-ylmethyl)carbamoyl]imidazo[1,2-a]pyridin-2-yl}methyl)-5-methyl-1H-pyrazole-3-carboxylic acid]
